Test system: HST in spinach chloroplast extract
Test: HST assay (TLC, MFBQ formed), spinach chloroplast extract
Type: biochemical
Conditions: for Spinach chloroplast extract % I at 25 ppm: TLC, estimated amount of MFBQ formed, relative to controls
Procedure: HST enzyme preparations for assay are also prepared directly from fresh plant material. For example HST enzyme preparations are from spinach. In the first step intact spinach chloroplasts are prepared from two lots of 500 g of fresh baby spinach leaves (e.g from the salad section of the local supermarket). Prepacked spinach is usually already washed, but if buying loose leaves these must be rinsed in water before proceeding. Stalks, large leaves and mid-ribs are removed. Each 500 g lot of leaves is added to 1.5 l of ‘Grinding medium’ in a 2 L plastic beaker. Grinding medium is cold (4° C.) 50 mM Tricine/NaOH buffer at pH 7.1 containing 330 mM glucose, 2 mM sodium isoascorbate, 5 mM MgCl2 and 0.1% bovine serum albumen The beaker, kept at 4° C., is placed under a Polytron 6000 blender, fitted with a 1.5″cutting probe and the mixture blended in short bursts of 5-8 sec up to 8-10K rpm until all the leaves are macerated. The homogenate is filtered into a 5 L beaker (embedded in an ice bucket) through four layers of muslin, and two layers of 50μ mesh nylon cloth. The filtrate is transferred to 250 ml buckets of a Beckman GS-6 centrifuge and spun at […] (3020 rpm) for 2 min at 4° C. The supernatant is drained away and discarded to leave a sediment of chloroplasts. Chloroplasts are resuspended in a few ml of cold resuspension medium by gentle swirling and gentle use of a quill brush soaked in resuspension medium. Resuspension medium is 50 mM Hepes/KOH pH 7.8 containing 330 mM sorbitol, 2 mM EDTA, 5 mM KH2PO4, 2 mM MgCl2 and 0.1% bovine serum albumen at 4° C. The chloroplasts are resuspended in 5-10 ml of resuspension buffer, recentrifuged down and resuspended again in order to wash them. The chloroplasts are then once again centrifuged down and then broken by resuspension in about 5 ml of 50 mM Tricine-NaOH pH 7.8 to a protein concentration of about 40 mg/ml. The solution is stored frozen at −80° C. in aliquots. This resuspension is defrosted and used directly in HST activity assays. Alternatively, chloroplasts are prepared resuspended in 50 mM Tris/HCl buffer at pH 7.8 containing 330 mM sorbitol (alternative resuspension buffer) and layered on top of a percol gradient (comprising the same buffer containing 45% percol), spun down, the intact chloroplast fraction taken and washed 2 or 3 times in the alternative resuspension buffer and then spun down again, resuspended in breaking buffer (without sorbitol), flash frozen and stored in aliquots at −80° C.
Prenyltransferase (HST) activities are measured by determining the prenylation rates of [U—^14C]homogentisate using farnesyl diphosphate (FDP) as prenyl donor. ^14C homogentisate is prepared from ^14C tyrosine using L amino acid oxidase and HPPD. For inhibitor testing, compounds are dissolved in dimethylsulfoxide (DMSO). DMSO added at up to 2% v/v has no effect on assays. Control assays contain DMSO at the same concentration as in inhibitor containing assays.
Assays using spinach chloroplast extracts (100 μl final volume) contain up to 2 mg of chloroplast protein, 50 mM Tricine-NaOH pH 8.5, 50 mM MgCl2, 200 μM farnesyl diphosphate (FDP) and 26 μM ^14C-homogentisate (167 dpm/pmol). Assays are run for about an hour at 28° C. […] Lipophilic reactions products are extracted and analyzed essentially as described in the literature.
Using the above assays percentage inhibition of the amount of MFBQ formed at a range of doses of inhibitors relative to the control amount obtained with no inhibitor present is reported (Table 1). The better inhibitors give greater percentage inhibition at lower doses.

O=c1c(-c2c(F)ccc(F)c2Cl)c(O)c2cccnc2n1CC(F)F [Compound 2.13]
Spinach chloroplast extract % I at 25 ppm: 40%

O=c1c(-c2cc(C(F)(F)F)ccc2Cl)c(O)c2nccnc2n1CC(F)F [Compound 2.9]
Spinach chloroplast extract % I at 25 ppm: 90%

O=c1c(-c2c(F)ccc(Br)c2Cl)c(O)c2nccnc2n1CC(F)F [Compound 2.8]
Spinach chloroplast extract % I at 25 ppm: 70%

O=c1c(-c2c(Cl)ccc(Cl)c2Cl)c(O)c2nccnc2n1CC(F)F [Compound 2.14]
Spinach chloroplast extract % I at 25 ppm: 80%

Oc1c(Cl)c(F)nc(F)c1Cl [Compound 1.1, haloxydine]
Spinach chloroplast extract % I at 25 ppm: 70%
inhibition of the HST reaction (final concentration 500 ppm): completely inhibit

Reference: patent US20110173718A1, “HERBICIDE TOLERANT PLANTS” (SYNGENTA CROP PROTECTION, INC., priority 2008, published 2011)
